# Assay results from patent US7244712B2, “Aminoglycoside antibiotics and methods of using same” (priority 2004, dated 2007).
# Experiments:
# 70S ribosome = assay: Fluorescence anisotropy binding to 70S ribosomes; details: competition with CRP, E. coli ribosomes; read-out: Dissociation constant (KD) with 70S ribosome
# Method: After establishing the lack of stereospecificity in the binding of aminoglycosides to the A-site RNA constructs (FIG. 9A-C) where the binding affinity, KD, is about 0.1 μM to about 100 μM, the stereospecificity of aminoglycoside binding to intact ribosomes was determined. Both yeast and E. coli ribosomes were prepared and aminoglycoside binding was measured using fluorescence anisotropy methods. For example, fluorescence anisotropy methods recited in Wang, Y., and Rando, R. R. Chem. Biol. (1995) 2, 281-290; and Wang, Y., Hamasaki, K., and Rando, R. R. Biochemistry (1997) 36,768-779. CRP was used as the binding probe. […] Binding data reported herein for aminoglycoside compounds with eukaryotic yeast ribosomes are similar to binding data for said aminoglycoside compounds with ribosoimes in bacteria and with eukaryotic A-site rRNA constructs.
# 5-Carboxytetramethylrhodamine-labeled paromomycin (CRP) and tobramycin (CRT) concentrations were determined spectroscopically at 550 nm using a molar extinction coefficient of 6.00×10 4 M −1 cm −1. Fluorescence anisotropy measurements were performed on a Perkin-Elmer LS-50B luminescence spectrometer equipped with a thermostat accurate to ±0.1° C. as indicated previously (Wang, Y., Hamasaki, K., & Rando, R. R. (1997) Biochemistry 36, 768-779). The tracer solution was excited at 550 nm and monitored at 580 nm. The integration time was 5 s. For every point, 6 measurements were taken, and their average values were used for calculation. Measurements were carried out in a buffer solution containing 150 mM NaCl, 5 mM KCl, 1 mM CaCl2, 1 mM MgCl2, and 20 mM HEPES (pH 7.5). Prior to measurements, RNA constructs were renatured by incubating in binding buffer {150 mM NaCl, 5 mM KCl, 1 mM CaCl2, 1 mM MgCl2, and 20 mM HEPES (pH 7.5)} for 3 minutes at 90° C. followed by slow cooling to 25° C.
# Equation 1 was used for the determination of the dissociation constant (Kd) for the interactions between RNA or ribosome and CRP. A=A0+DA{(RNA)0+(CRP)0+Kd−({(RNA)0+(CRP)0+Kd}^2−4(RNA)0(CRP)0)½}/2 where A and A0 are the fluorescence anisotropy of CRP in the presence and absence of RNA, respectively, and DA is the difference between the fluorescence anisotropy of CRP in the presence of an extrapolated infinite concentration of RNA minus the fluorescence anisotropy in the absence of RNA. (RNA)0 and (CRP)0 are the initial concentrations of RNA and CRP, respectively.
# Equation 2 is used for the calculation of the KD values in the competition binding assay. (aminoglycoside)0={KD(A−−A)/Kd(A−A0)+1}{(RNA)0−Kd(A−A0)/(A−−A)−(CRP)0(A−A0)/(A−−A)} where KD is the dissociation constant between the RNA and the aminoglycosides; (aminoglycoside)0 is the initial concentration of the aminoglycosides; AL is anisotropy of completely bound tracer. Both Kd and KD were determined by non-linear curve fitting using the equations described above, and are presented as mean values of three independent measurements.
# The purification of E. coli (E600) 70S ribosomes was carried out according to the published procedure (Lazaro, E., van den Broek, L. A. G. M., Felix, A. S., Ottenheijm, H. C. J., Ballesta, J. P. G. (1991) Biochemistry 30, 9642-9648). E. coli MRE600 were grown for 12 h in 6L of LB medium (10 g trypton, 5 g yeast extract, 5 g NaCl per 1 L, pH 7.0) at 37° C. Crude ribosomes were precipitated from clarified supernatant by 4 h centrifugation at 25,000 rpm in Beckman SW 28 rotor at 4° C. The ribosome pellets were collected in 5 mL of buffer BR1, containing 10 mM HEPES, pH 7.5, 500 mM ammonium acetate, 100 mM magnesium chloride and 2.5 mM DTT. The ribosome suspension was centrifuged for 20 min at 15000 rpm to be clarified. The clarified sample was loaded over two layers of 20% and 40% sucrose in buffer BR1 and centrifuged for 18 hr at 19000 rpm in Beckman SW28 rotor at 4° C. […]
# [1] = system: P. aeruginosa (ATCC 27853); assay: MIC, P. aeruginosa; assay type: cell-based; details: growth inhibition greater than 90%
# Method: Minimal inhibitory concentrations (MIC) were measured according to the published method (Greenberg, W. A., Priestley, E. S., Sears, P. S., Alper, P. B., Rosenbohm, C., Hendrix, M., Hung, S.-C., & Wong, C.-H. (1999) J. Am. Chem. Soc. 121, 6527-6541). E. coli (ATCC 25922) (both wild type and pMM-transformed) and P. aeruginosa (ATCC 27853) were grown in medium 2 to an optical density OD 600 of 0.6-0.8. The inoculi were diluted to OD 600 ˜0.1 in medium 2 and 1 mL of the culture was placed in 13 mL test tubes. The desired concentrations of antibiotic were added from stock solutions. […] The absorbance at 600 nm of each sample was read and MIC was taken as the lowest antibiotic concentration inhibiting bacterial growth by greater than 90%.
# E. coli (ATCC 25922) = assay: Bactericidal activity (bactericide index); assay type: cell-based; details: 3 h incubation, FIG. 8
# Method: The bactericidal activity of each antibiotic was investigated at concentrations of 0.5-4×MIC in medium E. coli (ATCC 25922) inoculum was added to 0.5 mL medium 2 to OD 600 ˜0.1 together with different antibiotic concentrations. The samples were incubated at 37° C. for 3 hrs, and the bacteria were collected by centrifugation. The bacterial pellets were washed with 0.5 mL of medium 2 and were plated on 1.5% medium 2 agar in 100 mm Petri dishes. The plates were incubated for 1-2 days at 37° C. and mean log 10 change in viable count was calculated and plotted vs drug concentration.
smiles,measurement,setting,value
NCC1OC(OC2C(N)CC(N)C(O)C2O)C(N)C(O)C1O [L-Neamine],Kd,70S ribosome,2690 ± 460 nM
same,"Minimal inhibitory concentration (MIC), P. aeruginosa",[1],1600 µM
same,Concentration at which bactericidal effect begins,E. coli (ATCC 25922),600 µM
